Source: patent US20130324564A1, “POLYMORPHS OF (S)-1-(4,4,6,6,6-PENTADEUTERO-5-HYDROXYHEXYL)-3-7-DIMETHYL-1H-PURINE-2,6(3H,7H)-DIONE” (CONCERT PHARMACEUTICALS, INC., priority 2010, published 2013)

Key:
[1] = Relative thermodynamic stability and interconversion of polymorphs; type: physicochemical
[2] = Solid-form stability of Form 1 under humidity, pressure and grinding stress; type: physicochemical

Row | SMILES | form conversion ([1]; upon air drying, storage and/or slurrying at room temperature) | form stability / form change ([2]; exposed to 0.35 GPa pressure) | form stability / form change ([2]; exposed to 97% relative humidity for up to 12 days) | form stability / form change ([2]; ground at ambient temperature (30Hz for 2hrs)) | form stability / form change ([2]; ground at −196° C. (25Hz for 0.5hrs)) | relative thermodynamic stability ([1]; compared with the other polymorphs)
1 | [2H]C([2H])([2H])[C@H](O)C([2H])([2H])CCCn1c(=O)c2c(ncn2C)n(C)c1=O [Form 2, (S)-1-(4,4,6,6,6-pentadeutero-5-hydroxyhexyl)-3,7-dimethyl-1H-purine-2,6(3H,7H)-dione] | convert to Form 1 | – | – | – | – | –
2 | [2H]C([2H])([2H])[C@H](O)C([2H])([2H])CCCn1c(=O)c2c(ncn2C)n(C)c1=O [Form 1, (S)-1-(4,4,6,6,6-pentadeutero-5-hydroxyhexyl)-3,7-dimethyl-1H-purine-2,6(3H,7H)-dione] | – | stable and did not undergo a form change | stable and did not undergo a form change | stable and did not undergo a form change | stable and did not undergo a form change | more thermodynamically stable than any of Forms 2, 3 and 4
